Laboratory results as given in the kinase profiling compilation of Christmann-Franck et al. (2016).

Assays:
Assay in all cases: KINOMEscan competition binding
Conditions in all cases: compound 10.0 µM
[1] = molecular target: CSNK1D (human) (UniProt P48730)
[2] = molecular target: TGFBR1 (human) (UniProt P36897)
[3] = molecular target: SIK1 (human) (UniProt P57059)
[4] = molecular target: RIPK4 (human) (UniProt P57078)
[5] = molecular target: ROS1 (human) (UniProt P08922)
[6] = test system: KIT (human), P10721 [V559D]
[7] = molecular target: EPHB1 (human) (UniProt P54762)
[8] = molecular target: CDK8 (human) (UniProt P49336)
[9] = molecular target: WEE2 (human) (UniProt P0C1S8)
[10] = molecular target: CDK4 CCND1 (human) (UniProt P11802+P24385)
[11] = molecular target: ADCK3 (human) (UniProt Q8NI60)
[12] = molecular target: TYK2 JH2 pseudokinase (human) (UniProt P29597)
[13] = molecular target: TEC (human) (UniProt P42680)
[14] = test system: KIT (human), P10721 [V559D/T670I]
[15] = molecular target: MAP2K4 (human) (UniProt P45985)
[16] = molecular target: PAK2 (human) (UniProt Q13177)
[17] = molecular target: TESK1 (human) (UniProt Q15569)
[18] = molecular target: PIK3C2G (human) (UniProt O75747)
[19] = molecular target: TNK2 (human) (UniProt Q07912)
[20] = molecular target: CDC42BPA (human) (UniProt Q5VT25)
[21] = molecular target: ACVR2B (human) (UniProt Q13705)
[22] = molecular target: DDR1 (human) (UniProt Q08345)
[23] = molecular target: EPHB2 (human) (UniProt P29323)
[24] = molecular target: MAP2K7 (human) (UniProt O14733)
[25] = molecular target: DMPK (human) (UniProt Q09013)
[26] = molecular target: ICK (human) (UniProt Q9UPZ9)
[27] = molecular target: MUSK (human) (UniProt O15146)
[28] = molecular target: MAP4K1 (human) (UniProt Q92918)
[29] = molecular target: ULK1 (human) (UniProt O75385)
[30] = test system: PIK3CA (human), P42336 [H1047L]
[31] = molecular target: DDR2 (human) (UniProt Q16832)
[32] = molecular target: BMPR1B (human) (UniProt O00238)
[33] = molecular target: BRAF (human) (UniProt P15056)
[34] = molecular target: PIM1 (human) (UniProt P11309)
[35] = molecular target: PIK3C2B (human) (UniProt O00750)
[36] = molecular target: CLK1 (human) (UniProt P49759)
[37] = molecular target: JAK1 JH2 pseudokinase (human) (UniProt P23458)
[38] = molecular target: CDK4 CCND3 (human) (UniProt P11802+P30281)
[39] = molecular target: GSK3A (human) (UniProt P49840)
[40] = molecular target: FGFR3 (human) (UniProt P22607)
[41] = molecular target: STK38 (human) (UniProt Q15208)

CDK8 (human), sequence (P49336 whole entry, looked up): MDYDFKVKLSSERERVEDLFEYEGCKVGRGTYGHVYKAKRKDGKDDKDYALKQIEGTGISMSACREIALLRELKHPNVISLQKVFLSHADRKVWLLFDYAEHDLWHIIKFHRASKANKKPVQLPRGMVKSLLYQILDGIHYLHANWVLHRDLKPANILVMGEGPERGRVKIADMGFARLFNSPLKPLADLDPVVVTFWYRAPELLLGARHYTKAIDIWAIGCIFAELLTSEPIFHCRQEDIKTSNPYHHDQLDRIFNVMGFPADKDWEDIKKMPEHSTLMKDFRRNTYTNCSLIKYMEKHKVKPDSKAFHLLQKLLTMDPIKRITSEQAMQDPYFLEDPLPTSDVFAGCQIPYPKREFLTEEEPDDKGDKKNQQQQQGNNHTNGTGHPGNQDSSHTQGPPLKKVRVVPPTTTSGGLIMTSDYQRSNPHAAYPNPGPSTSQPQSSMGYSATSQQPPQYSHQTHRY
GSK3A (human), sequence (P49840 whole entry, looked up): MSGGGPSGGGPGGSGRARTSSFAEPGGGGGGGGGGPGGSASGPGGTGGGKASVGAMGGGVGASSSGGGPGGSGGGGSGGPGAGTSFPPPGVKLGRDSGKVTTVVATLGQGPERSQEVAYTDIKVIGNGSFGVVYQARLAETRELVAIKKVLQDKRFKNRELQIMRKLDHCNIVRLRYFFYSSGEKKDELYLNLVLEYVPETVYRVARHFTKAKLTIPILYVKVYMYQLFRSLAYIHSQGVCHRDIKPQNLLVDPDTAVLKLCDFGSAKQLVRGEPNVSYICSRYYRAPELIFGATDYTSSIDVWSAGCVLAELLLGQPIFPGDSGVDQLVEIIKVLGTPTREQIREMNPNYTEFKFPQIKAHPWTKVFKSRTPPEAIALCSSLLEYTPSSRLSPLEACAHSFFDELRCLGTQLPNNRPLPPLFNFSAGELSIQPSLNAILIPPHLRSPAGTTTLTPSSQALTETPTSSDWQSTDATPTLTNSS
ULK1 (human), sequence (O75385 whole entry, looked up): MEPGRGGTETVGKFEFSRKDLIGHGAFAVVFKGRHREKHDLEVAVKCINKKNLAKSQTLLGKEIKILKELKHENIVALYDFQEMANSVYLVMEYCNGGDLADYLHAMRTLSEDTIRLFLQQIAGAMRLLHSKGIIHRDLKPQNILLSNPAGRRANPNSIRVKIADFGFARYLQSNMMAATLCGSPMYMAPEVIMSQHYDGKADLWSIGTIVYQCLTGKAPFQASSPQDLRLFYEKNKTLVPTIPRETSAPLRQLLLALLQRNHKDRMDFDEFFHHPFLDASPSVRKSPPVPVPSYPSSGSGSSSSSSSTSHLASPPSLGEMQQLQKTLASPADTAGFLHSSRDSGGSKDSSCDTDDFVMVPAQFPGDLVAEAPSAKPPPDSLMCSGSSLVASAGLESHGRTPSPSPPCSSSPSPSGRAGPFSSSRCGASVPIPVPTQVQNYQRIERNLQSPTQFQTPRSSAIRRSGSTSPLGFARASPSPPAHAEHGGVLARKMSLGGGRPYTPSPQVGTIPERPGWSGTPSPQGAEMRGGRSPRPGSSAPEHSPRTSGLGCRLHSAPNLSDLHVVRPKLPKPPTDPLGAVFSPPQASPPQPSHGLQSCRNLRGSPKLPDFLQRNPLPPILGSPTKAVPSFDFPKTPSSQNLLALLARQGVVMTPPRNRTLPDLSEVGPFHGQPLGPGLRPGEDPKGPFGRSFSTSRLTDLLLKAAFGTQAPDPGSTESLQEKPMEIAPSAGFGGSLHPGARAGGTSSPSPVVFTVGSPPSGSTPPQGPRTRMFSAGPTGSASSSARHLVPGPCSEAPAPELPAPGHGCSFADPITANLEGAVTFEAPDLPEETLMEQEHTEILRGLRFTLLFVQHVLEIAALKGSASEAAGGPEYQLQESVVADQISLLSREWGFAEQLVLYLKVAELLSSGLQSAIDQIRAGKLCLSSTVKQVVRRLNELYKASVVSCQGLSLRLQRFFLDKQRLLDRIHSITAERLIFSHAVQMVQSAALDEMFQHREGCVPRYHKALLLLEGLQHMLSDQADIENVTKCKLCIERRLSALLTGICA
ADCK3 (human), sequence (Q8NI60 whole entry, looked up): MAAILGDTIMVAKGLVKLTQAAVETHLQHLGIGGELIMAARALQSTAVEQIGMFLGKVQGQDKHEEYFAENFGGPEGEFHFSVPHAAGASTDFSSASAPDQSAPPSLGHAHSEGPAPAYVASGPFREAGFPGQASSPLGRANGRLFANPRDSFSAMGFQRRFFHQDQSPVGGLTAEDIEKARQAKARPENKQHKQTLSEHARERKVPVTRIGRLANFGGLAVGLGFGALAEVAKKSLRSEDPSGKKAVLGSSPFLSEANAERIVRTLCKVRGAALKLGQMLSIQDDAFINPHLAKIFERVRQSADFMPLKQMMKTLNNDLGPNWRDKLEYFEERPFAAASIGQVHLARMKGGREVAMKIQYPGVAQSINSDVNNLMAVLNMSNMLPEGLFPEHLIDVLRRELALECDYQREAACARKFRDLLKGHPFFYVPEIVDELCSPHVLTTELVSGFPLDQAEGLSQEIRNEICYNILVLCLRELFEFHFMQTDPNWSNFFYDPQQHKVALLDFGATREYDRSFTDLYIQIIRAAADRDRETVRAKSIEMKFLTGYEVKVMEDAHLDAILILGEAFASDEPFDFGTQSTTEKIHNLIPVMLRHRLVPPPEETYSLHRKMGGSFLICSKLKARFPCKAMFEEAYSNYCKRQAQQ
WEE2 (human), sequence (P0C1S8 whole entry, looked up): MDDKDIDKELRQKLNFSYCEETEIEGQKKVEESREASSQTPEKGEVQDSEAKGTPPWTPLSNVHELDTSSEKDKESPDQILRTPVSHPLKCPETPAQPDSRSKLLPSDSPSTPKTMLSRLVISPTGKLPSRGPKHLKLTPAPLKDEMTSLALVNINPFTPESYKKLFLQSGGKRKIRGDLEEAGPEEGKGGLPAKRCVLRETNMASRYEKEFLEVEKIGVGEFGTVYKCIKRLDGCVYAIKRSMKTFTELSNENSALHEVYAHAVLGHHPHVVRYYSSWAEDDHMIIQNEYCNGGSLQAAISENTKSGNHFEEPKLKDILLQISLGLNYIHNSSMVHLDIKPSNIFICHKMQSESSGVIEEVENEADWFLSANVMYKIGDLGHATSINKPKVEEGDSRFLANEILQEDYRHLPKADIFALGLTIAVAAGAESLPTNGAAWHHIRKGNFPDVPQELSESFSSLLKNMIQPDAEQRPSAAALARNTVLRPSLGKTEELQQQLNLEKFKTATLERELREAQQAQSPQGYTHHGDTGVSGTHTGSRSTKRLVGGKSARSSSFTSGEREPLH
CDK4 CCND3 (human), sequence (P11802 whole entry, looked up): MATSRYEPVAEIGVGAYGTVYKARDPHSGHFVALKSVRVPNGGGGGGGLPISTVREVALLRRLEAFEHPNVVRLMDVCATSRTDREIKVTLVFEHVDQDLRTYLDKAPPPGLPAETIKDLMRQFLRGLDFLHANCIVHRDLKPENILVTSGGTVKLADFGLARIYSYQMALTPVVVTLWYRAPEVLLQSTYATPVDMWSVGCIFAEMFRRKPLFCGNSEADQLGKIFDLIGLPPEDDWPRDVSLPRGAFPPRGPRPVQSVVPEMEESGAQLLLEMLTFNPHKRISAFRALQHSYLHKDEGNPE
CDK4 CCND3 (human), sequence (P30281 whole entry, looked up): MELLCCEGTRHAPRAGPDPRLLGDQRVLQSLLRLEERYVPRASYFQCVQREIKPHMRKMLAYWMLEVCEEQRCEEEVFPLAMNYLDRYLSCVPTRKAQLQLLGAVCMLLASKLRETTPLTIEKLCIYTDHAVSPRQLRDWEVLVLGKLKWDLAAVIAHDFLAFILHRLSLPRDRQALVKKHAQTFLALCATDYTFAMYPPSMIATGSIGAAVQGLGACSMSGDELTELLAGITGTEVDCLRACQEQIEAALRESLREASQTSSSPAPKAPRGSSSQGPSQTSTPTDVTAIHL
CDK4 CCND1 (human), sequence (P11802 whole entry, looked up): as the sequence (P11802 whole entry, looked up) above
CDK4 CCND1 (human), sequence (P24385 whole entry, looked up): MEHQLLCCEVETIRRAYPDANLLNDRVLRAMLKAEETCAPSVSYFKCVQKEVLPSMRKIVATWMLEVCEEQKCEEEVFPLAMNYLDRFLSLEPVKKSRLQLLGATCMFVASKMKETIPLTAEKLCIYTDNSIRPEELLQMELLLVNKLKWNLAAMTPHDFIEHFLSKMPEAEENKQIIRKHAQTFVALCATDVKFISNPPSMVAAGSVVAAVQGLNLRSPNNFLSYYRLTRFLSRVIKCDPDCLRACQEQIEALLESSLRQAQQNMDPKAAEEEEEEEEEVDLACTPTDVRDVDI
PIM1 (human), sequence (P11309 whole entry, looked up): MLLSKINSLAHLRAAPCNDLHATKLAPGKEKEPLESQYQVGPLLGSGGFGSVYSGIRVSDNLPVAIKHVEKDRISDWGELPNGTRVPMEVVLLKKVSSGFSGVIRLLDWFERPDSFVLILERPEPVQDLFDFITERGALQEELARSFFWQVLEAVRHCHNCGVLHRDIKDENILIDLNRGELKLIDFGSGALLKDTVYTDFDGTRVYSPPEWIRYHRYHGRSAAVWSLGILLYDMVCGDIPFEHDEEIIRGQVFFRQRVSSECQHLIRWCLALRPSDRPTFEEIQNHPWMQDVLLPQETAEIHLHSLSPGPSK
BMPR1B (human), sequence (O00238 whole entry, looked up): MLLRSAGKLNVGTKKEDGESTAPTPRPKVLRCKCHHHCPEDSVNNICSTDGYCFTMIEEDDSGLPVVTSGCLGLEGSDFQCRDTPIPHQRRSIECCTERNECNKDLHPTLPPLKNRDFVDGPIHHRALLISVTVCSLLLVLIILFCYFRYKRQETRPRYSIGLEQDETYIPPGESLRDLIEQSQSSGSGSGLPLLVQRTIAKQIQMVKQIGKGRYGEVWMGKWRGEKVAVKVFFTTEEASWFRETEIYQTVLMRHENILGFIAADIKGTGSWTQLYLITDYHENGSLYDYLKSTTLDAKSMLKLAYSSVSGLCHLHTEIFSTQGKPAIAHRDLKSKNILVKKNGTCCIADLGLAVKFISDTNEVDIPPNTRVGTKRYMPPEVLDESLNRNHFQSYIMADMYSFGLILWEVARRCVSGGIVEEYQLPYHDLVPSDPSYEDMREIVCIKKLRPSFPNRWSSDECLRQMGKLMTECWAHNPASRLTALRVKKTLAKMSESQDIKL

SMILES: COc1cc(C(=O)N2CCC(N3CCN(C)CC3)CC2)ccc1Nc1ncc2c(n1)N(C)c1ccccc1C(=O)N2C
- residual activity [1]: 81%
- kinase still bound, per cent of control [2]: 100%
- kinase still bound, per cent of control [3]: 77%
- kinase still bound, per cent of control [4]: 74%
- kinase still bound, per cent of control [5]: 12%
- kinase still bound, per cent of control [6]: 100%
- kinase still bound, per cent of control [7]: 98%
- residual activity [8]: 100%
- kinase still bound, per cent of control [9]: 100%
- residual activity [10]: 100%
- kinase still bound, per cent of control [11]: 71%
- kinase still bound, per cent of control [12]: 100%
- kinase still bound, per cent of control [13]: 100%
- kinase still bound, per cent of control [14]: 81%
- kinase still bound, per cent of control [15]: 100%
- kinase still bound, per cent of control [16]: 65%
- kinase still bound, per cent of control [17]: 82%
- kinase still bound, per cent of control [18]: 100%
- kinase still bound, per cent of control [19]: 18%
- kinase still bound, per cent of control [20]: 100%
- kinase still bound, per cent of control [21]: 100%
- kinase still bound, per cent of control [22]: 100%
- kinase still bound, per cent of control [23]: 100%
- kinase still bound, per cent of control [24]: 100%
- kinase still bound, per cent of control [25]: 100%
- kinase still bound, per cent of control [26]: 90%
- kinase still bound, per cent of control [27]: 99%
- kinase still bound, per cent of control [28]: 100%
- kinase still bound, per cent of control [29]: 80%
- kinase still bound, per cent of control [30]: 20%
- kinase still bound, per cent of control [31]: 100%
- kinase still bound, per cent of control [32]: 76%
- kinase still bound, per cent of control [33]: 81%
- kinase still bound, per cent of control [34]: 100%
- kinase still bound, per cent of control [35]: 100%
- kinase still bound, per cent of control [36]: 28%
- kinase still bound, per cent of control [37]: 92%
- residual activity [38]: 100%
- kinase still bound, per cent of control [39]: 100%
- kinase still bound, per cent of control [40]: 80%
- kinase still bound, per cent of control [41]: 96%
